Tests used:
[1] = compound: Cc1ccc(C(=O)N(CCCN)[C@@H](c2nc3cc(Cl)ccc3c(=O)n2Cc2ccccc2)C(C)C)cc1 [Ispinesib]; assay: relative viability (nuclei count vs DMSO), 5 days (fraction); higher = more cells survive
Summary of the method: (§1)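 Hoechst staining, done together with fixation and permeabilisation, marked nuclei for 4× imaging and MetaXpress counting. This followed 5 days without medium change after lung cancer cell lines, kept overnight at 37 °C in 1536-well plates, were pinned with five library-drug doses (not always all listed) spaced by √10 on vehicle-anchored plates. Viability is the ratio of treated-well to vehicle-well nuclei, expressed as a median across plates. Plates passed only at control CV below 25% with at least one doubling.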

[2] = compound: C[C@]1(O)C[C@@H](c2nc(-c3ccc4ccc(-c5ccccc5)nc4c3)c3c(N)nccn32)C1 [Linsitinib]; assay: as above
Summary of the method: as §1

Cell Line	relative viability ([1]; 0.001 µM)	relative viability ([1]; 0.003162 µM)	relative viability ([1]; 0.01 µM)	relative viability ([1]; 0.03162 µM)	relative viability ([1]; 0.1 µM)	relative viability ([2]; 0.01 µM)	relative viability ([2]; 0.03162 µM)	relative viability ([2]; 0.1 µM)	relative viability ([2]; 1 µM)	relative viability ([2]; 1 µM, anchor plate)	relative viability ([2]; 0.3162 µM)
HOP-62	1.06	1.07	1.26	0.967	0.338	1	1.07	1.09	0.791	1.02	–
NCI-H1793	0.977	1	1.19	0.69	0.201	0.867	0.906	0.917	0.682	0.903	0.757
NCI-H1355	1.08	1.06	1.09	0.728	0.274	1.02	0.984	0.947	0.615	0.848	0.787
COR-L23	1.11	1.04	1.19	0.512	0.171	0.975	1.04	1.07	0.998	0.89	0.911
HCC-44	0.974	1.07	1.04	0.883	0.186	0.964	0.967	0.96	0.659	0.702	0.668
A-427	1.05	1.11	0.955	0.261	0.246	1.02	1.11	0.985	0.858	1.13	–
IA-LM	1.02	1.15	1.22	0.952	0.197	1.01	0.983	0.824	0.646	0.619	0.802
NCI-H520	0.977	0.997	0.903	0.341	0.251	0.97	0.948	1.06	1.02	0.951	–
LXF-289	0.98	1.02	1.13	0.773	0.178	1.04	0.974	1.04	0.977	0.976	0.768
NCI-H2087	1.01	1.03	1.23	0.335	0.137	1.07	1.04	1.13	0.683	0.908	0.615
CAL-12T	1.05	1.13	1.1	0.664	0.18	1.01	0.917	0.951	0.879	0.839	0.752
NCI-H596	0.993	0.933	1.03	0.999	0.444	1.04	0.942	0.998	0.886	1.06	0.933
PC-14	1.06	1.09	0.898	0.404	0.121	0.963	0.929	0.981	0.867	0.959	0.895
NCI-H1915	0.971	1.09	1.02	0.451	0.209	1.02	1.04	1.01	0.684	1.07	0.828
NCI-H647	0.995	1.05	1.18	0.188	0.153	0.968	0.881	1.03	0.859	1.18	–
NCI-H322M	1.13	0.945	0.914	0.472	0.58	0.954	0.993	0.95	0.701	0.95	0.814

Cell Line	relative viability ([1]; 0.001 µM)	relative viability ([1]; 0.003162 µM)	relative viability ([1]; 0.01 µM)	relative viability ([1]; 0.03162 µM)	relative viability ([1]; 0.1 µM)	relative viability ([2]; 0.01 µM)	relative viability ([2]; 0.03162 µM)	relative viability ([2]; 0.1 µM)	relative viability ([2]; 1 µM)	relative viability ([2]; 1 µM, anchor plate)	relative viability ([2]; 0.3162 µM)
A549	1.1	0.983	1.31	0.568	0.109	0.929	0.978	0.963	0.615	0.601	0.729
NCI-H2170	1.03	1.05	1.08	0.599	0.253	1.02	0.962	0.939	1.02	–	0.746
BEN	1.12	1.1	0.983	0.647	0.378	0.945	0.948	0.832	0.933	0.935	0.657
NCI-H2009	1.03	1.02	1.04	0.606	0.481	0.974	0.994	1.06	0.979	1.18	0.669
LC-2-ad	1.04	1.1	1.07	0.536	0.175	0.941	0.896	0.967	0.756	0.86	0.735
NCI-H1437	1.07	1.11	1.14	0.995	0.247	1.01	0.963	0.997	1.01	1.02	0.945
NCI-H3122	1.09	1.06	1.01	0.779	0.172	0.99	0.947	1	1.02	1.01	0.575
NCI-H1563	1.13	0.97	0.938	0.927	0.772	1.03	0.924	1.09	0.93	1.22	1.3
NCI-H727	1.16	1.09	1.14	0.845	0.543	0.961	0.866	0.895	0.591	0.305	0.461
Calu-6	1.15	0.996	0.689	0.18	0.19	0.946	0.892	1.01	0.857	0.96	0.862
NCI-H1734	0.971	1.01	1.09	0.612	0.262	1.06	1.04	0.88	0.721	0.862	0.674
HCC-15	1.08	1.07	1.09	0.473	0.197	1.07	0.887	0.984	0.675	0.89	0.383
NCI-H2405	1.05	1.05	1.05	0.884	0.561	0.93	0.966	1	0.678	0.891	0.821
NCI-H1993	0.959	1.05	1.05	0.912	0.651	1.03	0.916	0.879	0.607	0.759	0.622
NCI-H1650	1.07	1.02	0.912	0.261	0.196	0.917	0.894	0.926	0.665	–	0.477

Source: the supplement of paper PMC10307832
